Results: patent US6841560B2, “Substituted isoquinoline derivatives and their use as anticonvulsants” (SmithKline Beecham p.l.c., priority 1997, dated 2005)

Test system: electrically-induced seizures in mice
Assay: Maximal electroshock seizure (MEST) threshold test, mouse model
Assay type: in vivo
Conditions: 10 mg/kg oral, suspension in methyl cellulose, one hour post dosing
Description: (§1) The maximal electroshock seizure (MEST) threshold test in rodents is particularly sensitive for detecting potential anticonvulsant properties^1. In this model, anticonvulsant agents elevate the threshold to electrically-induced seizures whilst proconvulsants lower the seizure threshold.
Mice (naive male, Charles River, U.K. CD1 strain, 25-30 g) are randomly assigned to groups of 10-20 and dosed orally or intraperitoneally at a dose volume of 10 ml/kg with various doses of compound (0.3-300 mg/kg) or vehicle. Mice are then subjected at 30 or 60 min post dose to a single electroshock (0.1 sec, 50 Hz, sine wave form) administered via corneal electrodes. The mean current and standard error required to induce a tonic seizure in 50% (CC50) of the mice in a particular treatment group is determined by the ‘up and down’ method of Dixon and Mood (1948)^2. Statistical comparisons between vehicle- and drug-treated groups are made using the method of Litchfield and Wilcoxon (1949)^3.
In control animals the CC50 is usually 14-18 mA. […] If a tonic convulsion does occur, then the current is decreased, and so on until all the animals in the group have been tested.
Studies are carried out using a Hugo Sachs Electronik Constant Current Shock Generator with totally variable control of shock level from 0 to 300 mA and steps of 2 mA are usually used.

Compound	increase in seizure threshold
CC(C)Oc1ccc(C(=O)Nc2ccc3c(c2)CN(C)CC3)cc1 [Example 6, N-(2-Methyl-1,2,3,4-tetrahydroisoquinolin-7-yl)-4-iso-propoxybenzamide]	90%
CN1CCc2ccc(NC(=O)c3ccc(Oc4ccccc4)cc3)cc2C1 [Example 7, N-(2-Methyl-1,2,3,4-tetrahydroisoquinolin-7-yl)-4-phenoxybenzamide]	23%
CN1CCc2ccc(NC(=O)c3cccc(Cl)c3)cc2C1 [Example 4, N-(2-Methyl-1,2,3,4-tetrahydroisoquinolin-7-yl)-3-chlorobenzamide]	24%
CN1CCc2ccc(NC(=O)c3ccc(C(C)(C)C)cc3)cc2C1 [Example 5, N-(2-Methyl-1,2,3,4-tetrahydroisoquinolin-7-yl)-4-t-butylbenzamide]	36%

Test system: not given
Assay: not given
Conditions: not given

melting point	Compound
197 to 201 °C	CN1CCc2ccc(NC(=O)c3cccc(C(=O)C(C)(C)C)c3)cc2C1.Cl
153 to 155 °C	O=C(Nc1ccc2c(c1)CNCC2)c1ccc(Cl)s1.O=C(O)C(F)(F)F [Example 1, N-(1,2,3,4-Tetrahydroisoquinolin-7-yl)-5-chlorothiophene-2-carboxamide, monotrifluoroacetate]

Test system: maximal (tonic hindlimb extension) electroshock seizures in male rats
Assay: Maximal electroshock seizure (MEST) threshold test, rat model
Assay type: in vivo
Conditions: 2 mg/kg p.o. at 2 h, suspended in 1% methyl cellulose
Description: as §1
The threshold for maximal (tonic hindlimb extension) electroshock seizures in male rats (Sprague Dawley, 80-150 g, 6 weeks old) was determined by a Hugo Sachs Electronik stimulator which delivered a constant current (0.3 sec duration, from 1-300 mA in steps of 5-20 mA). The procedure is similar to that outlined above for mouse and full details are as published by Upton et al,.^4
The percentage increase or decrease in CC50 for each group compared to the control is calculated.
Drugs are suspended in 1% methyl cellulose.

Compound	increase in CC50 (seizure threshold) compared to control
CC(C)c1ccc(C(=O)Nc2ccc3c(c2)CN(C)CC3)cc1C#N.Cl [Example 67, N-(2-Methyl-1,2,3,4-tetrahydroisoquinolin-7-yl)-3-cyano-4-iso-propylbenzamide, hydrochloride]	303%
COc1ccc(C(=O)Nc2ccc3c(c2)CN(C)CC3)cc1C(F)(F)F [Example 51, N-(2-Methyl-1,2,3,4-tetrahydroisoquinolin-7-yl)-4-methoxy-3-trifluoromethylbenzamide]	545%
CC(C)Oc1ccc(C(=O)Nc2ccc3c(c2)CN(C)CC3)cc1Cl [Example 48, N-(2-Methyl-1,2,3,4-tetrahydroisoquinolin-7-yl)-3-chloro-4-iso-propoxybenzamide]	389%
CCOc1ccc(C(=O)Nc2ccc3c(c2)CN(C)CC3)cc1Br [Example 49, N-(2-Methyl-1,2,3,4-tetrahydroisoquinolin-7-yl)-3-bromo-4-ethoxybenzamide]	325%
